From ChEMBL document CHEMBL1132968, “Substituent effects on the antibacterial activity of nitrogen-carbon-linked (azolylphenyl)oxazolidinones with expanded activity against the fastidious gram-negative organisms Haemophilus influenzae and Moraxella catarrhalis” (2000)
In brackets after ≈: the same amount, converted by molar mass.

Legend:
Format in all cases: functional
Enterococcus faecalis = experiment: Inhibitory activity against Enterococcus faecalis UC9217
Moraxella catarrhalis = experiment: Inhibitory activity against Moraxella catarrhalis UC30610
[1] = system: Staphylococcus epidermidis; experiment: Inhibitory activity against Methicillin-resistant Staphylococcus epidermidis UC12084
Streptococcus pneumoniae = experiment: Inhibitory activity against Streptococcus pneumoniae UC9912
Haemophilus influenzae = experiment: Inhibitory activity against Haemophilus influenzae UC30063
Staphylococcus aureus [2] = experiment: Inhibitory activity against Methicillin-susceptible Staphylococcus aureus UC9213
Staphylococcus aureus [3] = experiment: Inhibitory activity against Methicillin-resistant Staphylococcus aureus UC6685

Row | SMILES | MIC (Enterococcus faecalis) [µg/mL] | MIC (Moraxella catarrhalis) [µg/mL] | MIC [1] [µg/mL] | MIC (Streptococcus pneumoniae) [µg/mL] | MIC (Haemophilus influenzae) [µg/mL] | MIC (Staphylococcus aureus [2]) [µg/mL] | MIC (Staphylococcus aureus [3]) [µg/mL]
1 | CC(=O)NC[C@H]1CN(c2ccc(-n3ccc(NS(C)(=O)=O)n3)c(F)c2)C(=O)O1 | > 16 | > 16 | 4 (≈ 9.72 µM) | 4 (≈ 9.72 µM) | > 16 | > 16 | –
2 | CC(=O)NC[C@H]1CN(c2ccc(-n3ncnn3)c(F)c2)C(=O)O1 | 1 (≈ 3.12 µM) | 8 (≈ 25 µM) | 1 (≈ 3.12 µM) | 0.5 (≈ 1.56 µM) | 8 (≈ 25 µM) | 2 (≈ 6.24 µM) | 2 (≈ 6.24 µM)
3 | CC(=O)NC[C@H]1CN(c2ccc(-n3cc(C#C[Si](C)(C)C)cn3)c(F)c2)C(=O)O1 | 8 (≈ 19.3 µM) | > 16 | 2 (≈ 4.82 µM) | 2 (≈ 4.82 µM) | > 16 | 4 (≈ 9.65 µM) | 4 (≈ 9.65 µM)
4 | CC(=O)NC[C@H]1CN(c2ccc(-n3ccc(CCCO)c3)c(F)c2)C(=O)O1 | 2 (≈ 5.33 µM) | 8 (≈ 21.3 µM) | 1 (≈ 2.66 µM) | 0.5 (≈ 1.33 µM) | > 16 | 4 (≈ 10.7 µM) | 4 (≈ 10.7 µM)
5 | CC(=O)NC[C@H]1CN(c2ccc(-n3ccc(C)n3)c(F)c2)C(=O)O1 | 4 (≈ 12 µM) | 16 (≈ 48.1 µM) | 1 (≈ 3.01 µM) | 1 (≈ 3.01 µM) | > 16 | 4 (≈ 12 µM) | 4 (≈ 12 µM)
6 | CC(=O)NC[C@H]1CN(c2ccc(-n3nnc(/C=N/O)n3)c(F)c2)C(=O)O1 | 4 (≈ 11 µM) | 8 (≈ 22 µM) | 1 (≈ 2.75 µM) | 0.5 (≈ 1.38 µM) | 16 (≈ 44 µM) | 4 (≈ 11 µM) | 4 (≈ 11 µM)
7 | CC(=O)NC[C@H]1CN(c2ccc(-n3ccc(NC(=O)CO)n3)c(F)c2)C(=O)O1 | 8 (≈ 20.4 µM) | > 16 | 4 (≈ 10.2 µM) | 1 (≈ 2.56 µM) | > 16 | 16 (≈ 40.9 µM) | 16 (≈ 40.9 µM)
8 | CC(=O)NC[C@H]1CN(c2ccc(-n3ccc(C#N)n3)c(F)c2)C(=O)O1 | 2 (≈ 5.83 µM) | 8 (≈ 23.3 µM) | 0.5 (≈ 1.46 µM) | 0.5 (≈ 1.46 µM) | 16 (≈ 46.6 µM) | 1 (≈ 2.91 µM) | 1 (≈ 2.91 µM)
9 | CC(=O)NC[C@H]1CN(c2ccc(-n3ccc(C(N)=O)c3)c(F)c2)C(=O)O1 | 4 (≈ 11.1 µM) | > 16 | 1 (≈ 2.78 µM) | 0.25 (≈ 0.694 µM) | > 16 | 16 (≈ 44.4 µM) | 8 (≈ 22.2 µM)
10 | CC(=O)NC[C@H]1CN(c2ccc(-n3ccc(NC(=O)OC(C)(C)C)n3)c(F)c2)C(=O)O1 | 2 (≈ 4.61 µM) | 8 (≈ 18.5 µM) | 2 (≈ 4.61 µM) | 0.5 (≈ 1.15 µM) | > 16 | 4 (≈ 9.23 µM) | 2 (≈ 4.61 µM)
11 | CC(=O)NC[C@H]1CN(c2ccc(-n3cc(/C=N/O)nn3)c(F)c2)C(=O)O1 | 8 (≈ 22.1 µM) | 8 (≈ 22.1 µM) | 1 (≈ 2.76 µM) | 0.5 (≈ 1.38 µM) | > 16 | 8 (≈ 22.1 µM) | 2 (≈ 5.52 µM)
12 | CC(=O)NC[C@H]1CN(c2ccc(-n3nnc(C#N)n3)c(F)c2)C(=O)O1 | 2 (≈ 5.79 µM) | 4 (≈ 11.6 µM) | 0.5 (≈ 1.45 µM) | 0.5 (≈ 1.45 µM) | 16 (≈ 46.3 µM) | 2 (≈ 5.79 µM) | 1 (≈ 2.9 µM)
13 | CC(=O)NC[C@H]1CN(c2ccc(-n3nnc(C=O)n3)c(F)c2)C(=O)O1 | 16 (≈ 45.9 µM) | 16 (≈ 45.9 µM) | 2 (≈ 5.74 µM) | 1 (≈ 2.87 µM) | 16 (≈ 45.9 µM) | 8 (≈ 23 µM) | 4 (≈ 11.5 µM)
14 | CC(=O)NC[C@H]1CN(c2ccc(-n3cc(NC(=O)OC(C)(C)C)cn3)c(F)c2)C(=O)O1 | 8 (≈ 18.5 µM) | > 16 | 2 (≈ 4.61 µM) | 1 (≈ 2.31 µM) | > 16 | 8 (≈ 18.5 µM) | 4 (≈ 9.23 µM)
15 | CC(=O)NC[C@H]1CN(c2ccc(-n3cc(NC(C)=O)cn3)c(F)c2)C(=O)O1 | 16 (≈ 42.6 µM) | > 16 | 2 (≈ 5.33 µM) | 1 (≈ 2.66 µM) | > 16 | > 16 | 16 (≈ 42.6 µM)
16 | CNC(=O)c1cnn(-c2ccc(N3C[C@H](CNC(C)=O)OC3=O)cc2F)c1 | 16 (≈ 42.6 µM) | 16 (≈ 42.6 µM) | 2 (≈ 5.33 µM) | 0.5 (≈ 1.33 µM) | > 16 | > 16 | –
17 | CC(=O)NC[C@H]1CN(c2ccc(-n3cc(CO)nn3)c(F)c2)C(=O)O1 | 2 (≈ 5.73 µM) | 2 (≈ 5.73 µM) | 0.5 (≈ 1.43 µM) | 0.25 (≈ 0.716 µM) | 4 (≈ 11.5 µM) | 4 (≈ 11.5 µM) | 4 (≈ 11.5 µM)
18 | C#Cc1cnn(-c2ccc(N3C[C@H](CNC(C)=O)OC3=O)cc2F)c1 | 2 (≈ 5.84 µM) | 8 (≈ 23.4 µM) | 1 (≈ 2.92 µM) | 0.5 (≈ 1.46 µM) | > 16 | 2 (≈ 5.84 µM) | 2 (≈ 5.84 µM)
19 | CC(=O)NC[C@H]1CN(c2ccc(-n3ccc(=O)[nH]3)c(F)c2)C(=O)O1 | 8 (≈ 23.9 µM) | 8 (≈ 23.9 µM) | 1 (≈ 2.99 µM) | 1 (≈ 2.99 µM) | 16 (≈ 47.9 µM) | 8 (≈ 23.9 µM) | 8 (≈ 23.9 µM)
20 | CC(=O)NC[C@H]1CN(c2ccc(-n3cnc(C(N)=O)n3)c(F)c2)C(=O)O1 | > 16 | 16 (≈ 44.2 µM) | 16 (≈ 44.2 µM) | 2 (≈ 5.52 µM) | > 16 | > 16 | –

Row | SMILES | MIC (Enterococcus faecalis) [µg/mL] | MIC (Moraxella catarrhalis) [µg/mL] | MIC [1] [µg/mL] | MIC (Streptococcus pneumoniae) [µg/mL] | MIC (Haemophilus influenzae) [µg/mL] | MIC (Staphylococcus aureus [2]) [µg/mL] | MIC (Staphylococcus aureus [3]) [µg/mL]
21 | CC(=O)NC[C@H]1CN(c2ccc(-n3cnc(C=O)n3)c(F)c2)C(=O)O1 | 4 (≈ 11.5 µM) | 8 (≈ 23 µM) | 0.5 (≈ 1.44 µM) | 0.5 (≈ 1.44 µM) | 8 (≈ 23 µM) | 4 (≈ 11.5 µM) | 2 (≈ 5.76 µM)
22 | CC(=O)NC[C@H]1CN(c2ccc(-n3cnc(C)n3)c(F)c2)C(=O)O1 | 8 (≈ 24 µM) | 16 (≈ 48 µM) | 2 (≈ 6 µM) | 1 (≈ 3 µM) | > 16 | 8 (≈ 24 µM) | 4 (≈ 12 µM)
23 | CC(=O)NC[C@H]1CN(c2ccc(-n3ccc(NC(C)=O)n3)c(F)c2)C(=O)O1 | 4 (≈ 10.7 µM) | > 16 | 2 (≈ 5.33 µM) | 0.5 (≈ 1.33 µM) | > 16 | 8 (≈ 21.3 µM) | 8 (≈ 21.3 µM)
24 | CC(=O)NC[C@H]1CN(c2ccc(-n3nccn3)c(F)c2)C(=O)O1 | 4 (≈ 12.5 µM) | > 16 | 1 (≈ 3.13 µM) | 1 (≈ 3.13 µM) | > 16 | 4 (≈ 12.5 µM) | 2 (≈ 6.26 µM)
25 | CNC(=O)c1cn(-c2ccc(N3C[C@H](CNC(C)=O)OC3=O)cc2F)nn1 | 8 (≈ 21.3 µM) | > 16 | 2 (≈ 5.31 µM) | 1 (≈ 2.66 µM) | > 16 | 8 (≈ 21.3 µM) | 4 (≈ 10.6 µM)
26 | CCOC(=O)CCc1ccn(-c2ccc(N3C[C@H](CNC(C)=O)OC3=O)cc2F)c1 | 2 (≈ 4.79 µM) | 2 (≈ 4.79 µM) | 1 (≈ 2.4 µM) | 0.5 (≈ 1.2 µM) | > 16 | 4 (≈ 9.58 µM) | 4 (≈ 9.58 µM)
27 | CC(=O)NC[C@H]1CN(c2ccc(-n3ccc(OC(C)=O)n3)c(F)c2)C(=O)O1 | 8 (≈ 21.3 µM) | 8 (≈ 21.3 µM) | 1 (≈ 2.66 µM) | 1 (≈ 2.66 µM) | 16 (≈ 42.5 µM) | 8 (≈ 21.3 µM) | 8 (≈ 21.3 µM)
28 | COc1ccn(-c2ccc(N3C[C@H](CNC(C)=O)OC3=O)cc2F)n1 | 16 (≈ 45.9 µM) | 16 (≈ 45.9 µM) | 2 (≈ 5.74 µM) | 2 (≈ 5.74 µM) | 16 (≈ 45.9 µM) | 8 (≈ 23 µM) | 8 (≈ 23 µM)
29 | CC(=O)NC[C@H]1CN(c2ccc(-n3ccc(C(C)O)c3)c(F)c2)C(=O)O1 (stereo not given in full) | 8 (≈ 22.1 µM) | > 16 | 4 (≈ 11.1 µM) | 2 (≈ 5.53 µM) | > 16 | 16 (≈ 44.3 µM) | 16 (≈ 44.3 µM)
30 | CO/N=C(/C)c1ccn(-c2ccc(N3C[C@H](CNC(C)=O)OC3=O)cc2F)c1 | 2 (≈ 5.15 µM) | 8 (≈ 20.6 µM) | 1 (≈ 2.57 µM) | 0.5 (≈ 1.29 µM) | > 16 | 4 (≈ 10.3 µM) | 2 (≈ 5.15 µM)
31 | CC(=O)NC[C@H]1CN(c2ccc(-n3cc(I)cn3)c(F)c2)C(=O)O1 | 2 (≈ 4.5 µM) | 8 (≈ 18 µM) | 1 (≈ 2.25 µM) | 0.5 (≈ 1.13 µM) | > 16 | 2 (≈ 4.5 µM) | 2 (≈ 4.5 µM)
32 | CC(=O)NC[C@H]1CN(c2ccc(-n3cnc(CO)n3)c(F)c2)C(=O)O1 | 16 (≈ 45.8 µM) | 8 (≈ 22.9 µM) | 2 (≈ 5.73 µM) | 1 (≈ 2.86 µM) | 16 (≈ 45.8 µM) | 16 (≈ 45.8 µM) | 16 (≈ 45.8 µM)
33 | CC(=O)NC[C@H]1CN(c2ccc(-n3cnc(NC(=O)Cc4ccccc4)n3)c(F)c2)C(=O)O1 | > 16 | > 16 | > 16 | 2 (≈ 4.42 µM) | > 16 | > 16 | –
34 | CC(=O)NC[C@H]1CN(c2ccc(-n3cnc(N)n3)c(F)c2)C(=O)O1 | 16 (≈ 47.9 µM) | 16 (≈ 47.9 µM) | 2 (≈ 5.98 µM) | 1 (≈ 2.99 µM) | > 16 | 8 (≈ 23.9 µM) | 4 (≈ 12 µM)
35 | CC(=O)NC[C@H]1CN(c2ccc(-n3cc(C(N)=O)nn3)c(F)c2)C(=O)O1 | 8 (≈ 22.1 µM) | 8 (≈ 22.1 µM) | 1 (≈ 2.76 µM) | 0.5 (≈ 1.38 µM) | > 16 | 4 (≈ 11 µM) | 4 (≈ 11 µM)
36 | CC(=O)NC[C@H]1CN(c2ccc(-n3ccc(N)n3)c(F)c2)C(=O)O1 | 4 (≈ 12 µM) | 16 (≈ 48 µM) | 1 (≈ 3 µM) | 0.5 (≈ 1.5 µM) | 16 (≈ 48 µM) | 2 (≈ 6 µM) | 4 (≈ 12 µM)
37 | CC(=O)NC[C@H]1CN(c2ccc(-n3cnc(C#N)n3)c(F)c2)C(=O)O1 | 4 (≈ 11.6 µM) | 16 (≈ 46.5 µM) | 2 (≈ 5.81 µM) | 1 (≈ 2.9 µM) | 16 (≈ 46.5 µM) | 4 (≈ 11.6 µM) | 2 (≈ 5.81 µM)
38 | COC(=O)c1ncn(-c2ccc(N3C[C@H](CNC(C)=O)OC3=O)cc2F)n1 | > 16 | > 16 | 4 (≈ 10.6 µM) | 4 (≈ 10.6 µM) | > 16 | > 16 | –
39 | CC(=O)NC[C@H]1CN(c2ccc(-n3cnc(C#N)c3)c(F)c2)C(=O)O1 | 2 (≈ 5.83 µM) | 4 (≈ 11.7 µM) | 0.5 (≈ 1.46 µM) | 0.25 (≈ 0.728 µM) | 8 (≈ 23.3 µM) | 4 (≈ 11.7 µM) | 4 (≈ 11.7 µM)
40 | CC(=O)NC[C@H]1CN(c2ccc(-n3ccc(C(F)(F)F)n3)c(F)c2)C(=O)O1 | 8 (≈ 20.7 µM) | > 16 | 2 (≈ 5.18 µM) | 1 (≈ 2.59 µM) | > 16 | 4 (≈ 10.4 µM) | 4 (≈ 10.4 µM)
